A short description of data set [1]: Metabolic study in mice (radiochromatogram of ex-vivo mouse blood). The note with it: mouse blood 5 min after injection. Details: species or system Swiss albino mice. The procedure:
A bolus containing the radioligand in normal saline (100-150 μL, =3 nmol, 200-500 μCi) was injected in the tail vein of Swiss albino mice. Animals were kept for 5 min in a cage with access to water and were then euthanized promptly by cardiac puncture while under a mild ether anesthesia. Blood (500-900 μL) was collected from the heart with a syringe and transferred in a pre-chilled Eppendorf tube on ice.
Blood was centrifuged to remove blood cells (10 min, 2000 g/4° C.). The plasma was collected, mixed with acetonitrile (MeCN) in a 1/1 v/v ratio and centrifuged again (10 min, 15000 g/4° C.). Supernatants were concentrated to a small volume (gentle N2-flux at 40° C.), diluted with saline (z 400 μL) and filtered through a Millex GV filter (0.22 μm).
Aliquots of plasma samples (prepared as described above) were loaded on a Symmetry Shield RPM column which was eluted at a flow rate of 1.0 mL/min with the following gradient: 100% A to 90% A in 10 min and from 90% A to 60% for the next 60 min (A=0.1% aqueous TFA (v/v) and B=MeCN). Elution of radiocomponents was monitored by a gamma detector. For ^99mTc-radiopeptides, ITLC-SG analysis was performed in parallel using acetone as the eluent to detect traces of TcO4^− release (TcO4^− Rf=1.0).

Data set [2] concerns human prostate cancer PC-3 xenografts. The note with it: cited from earlier work.
In data set [3] the test system is malignant lesions. The note with it: cited from earlier work.
For data set [4], the system named is PC-3 tumors (hGRPR+). Briefly: Biodistribution in GRPR+ tumor bearing mice. The data set is classed as in vivo, female SCID mice. The note with it: for uptake in PC-3 tumor: iv, 10 pmol total peptide. Here is the method: A 150 μL bolus containing a suspension of 1.5×10^7 freshly harvested human PC-3 cells in normal saline was subcutaneously injected in the flanks of female SCID mice. The animals were kept under aseptic conditions and 2-3 weeks later developed well-palpable tumors at the inoculation site (80-150 mg).
On the day of the experiment, the selected radiopeptide was injected in the tail vein of tumor-bearing mice as a 100 μL bolus (1-2 μCi, 10 pmol total peptide; in saline/EtOH 9/1 v/v). Animals were sacrificed in groups of four under a mild ether anesthesia by cardiac puncture at predetermined time points pi (postinjection). Additional sets of three to four animals were co-injected with excess [Tyr^4]BBN (≈40 nmol) along with test radiopeptide and were sacrificed at 4 h pi (blocked animals). Samples of blood and tissues of interest were immediately collected, weighed and measured for radioactivity in a γ-counter. Stomach and intestines were not emptied of their contents, but measured as collected. Biodistribution data were calculated as percent injected dose per gram tissue (% ID/g) using the Microsoft Excel program with the aid of suitable standards of the injected dose.

Consider 5 compounds from patent US11083805B2, “Radiolabeled GRPR-antagonists for diagnostic imaging and treatment of GRPR-positive cancer” (Advanced Accelerator Applications International SA, priority 2012, dated 2021).

In the case of `CC(C)CC(CC(C)C)NC(=O)[C@H](Cc1cnc[nH]1)NC(=O)CNC(=O)[C@@H](NC(=O)[C@H](C)NC(=O)[C@H](Cc1c[nH]c2ccccc12)NC(=O)[C@H](CCC(N)=O)NC(=O)[C@@H](Cc1ccccc1)NC(=O)COCC(=O)Nc1ccc(CNC(=O)CN2CCN(CC(=O)O)CCN(CC(=O)O)CCN(CC(=O)O)CC2)cc1)C(C)C` [[67Ga]NeoBOMB-1] [^67Ga-DOTA-(p-aminobenzylamine-diglycolic acid)-[DPhe^6,His^12-CO—NH—CH[(CH2CH(CH3)2]2,des-Leu^3, des-Met^4]BBN(6-14), metal not drawn], in data set [1], the “percentage of parent peptide remaining intact” value is > 97%.
Take “[^99mTc—N4′]DPhe-Gln-Trp-Ala-Val-Gly-His-Leu-NHEt [[99mTc]Demobesin 1]”: the “tumor accumulation versus bombesin-based agonists ([99mTc]Demobesin 3-6)” value in data set [2] (mice bearing PC-3 xenografts) is on record as “significantly higher tumor accumulation”. Besides, the “clearance from the body of mice and the pancreas” value in data set [2] (mouse, in vivo) was “cleared very rapidly”. Besides, in data set [3] (human, in vivo), the “body and pancreas clearance” value is given as “rapid”; the in vivo stability result is recorded as “rather good”; the tolerability result was “excellent tolerability”. Moreover, in data set [3] (humans), the “retention in malignant lesions compared to radiolabeled BBN-like agonists” value is “insufficient retention”.
On to `CC(C)CC(CC(C)C)NC(=O)[C@H](Cc1cnc[nH]1)NC(=O)CNC(=O)[C@@H](NC(=O)[C@H](C)NC(=O)[C@H](Cc1c[nH]c2ccccc12)NC(=O)[C@H](CCC(N)=O)NC(=O)[C@@H](Cc1ccccc1)NC(=O)COCC(=O)Nc1ccc(CNC(=O)C2C[N]3CC[NH][Tc]34(=[O])(=[O])[NH]CC[N]4C2)cc1)C(C)C` (some centres unmarked) [[99mTc]NeoBOMB-2], for which the entries for the “uptake in PC-3 tumor” value in data set [4] (1 h pi), in data set [4] (4 h pi) and in data set [4] (24 h pi) were ~30 % ID/g, ~30 % ID/g and > 25 % ID/g, respectively. The “percentage of parent peptide remaining intact” value in data set [1] was > 88%.
Regarding `CC(C)CC(CC(C)C)NC(=O)[C@H](Cc1cnc[nH]1)NC(=O)CNC(=O)[C@@H](NC(=O)[C@H](C)NC(=O)[C@H](Cc1c[nH]c2ccccc12)NC(=O)[C@H](CCC(N)=O)NC(=O)[C@@H](Cc1ccccc1)NC(=O)COCC(=O)Nc1ccc(CNC(=O)CN2CCN(CC(=O)O)CCN(CC(=O)O)CCN(CC(=O)O)CC2)cc1)C(C)C` [[177Lu]NeoBOMB-1] [^177Lu-DOTA-(p-aminobenzylamine-diglycolic acid)-[DPhe^6,His^12-CO—NH—CH[(CH2CH(CH3)2]2,des-Leu^13,des-Met^14]BBN(6-14), metal not drawn], the “tumor-to-pancreas ratios over time” value in data set [4] (4, 24 and 72 h pi, especially at 72 h pi) is on record as “increasingly higher tumor-to-pancreas ratios”. The “percentage of parent peptide remaining intact” value in data set [1] is recorded as > 92%.
In the case of `CC(C)CC(CC(C)C)NC(=O)[C@H](Cc1cnc[nH]1)NC(=O)CNC(=O)[C@@H](NC(=O)[C@H](C)NC(=O)[C@H](Cc1c[nH]c2ccccc12)NC(=O)[C@H](CCC(N)=O)NC(=O)[C@@H](Cc1ccccc1)NC(=O)COCC(=O)Nc1ccc(CNC(=O)CN2CCN(CC(=O)O)CCN(CC(=O)O)CCN(CC(=O)O)CC2)cc1)C(C)C` [[111In]NeoBOMB-1] [^111In-DOTA-(p-aminobenzylamine-diglycolic acid)-[DPhe^6,His^12-CO—NH—CH[(CH2CH(CH3)2)2,des-Leu^13,des-Met^14]BBN(6-14), metal not drawn], the “tumor uptake after co-injection of excess [Tyr4]BBN (in vivo receptor blockade)” value in data set [4] (4 h pi, excess [Tyr4]BBN (100 μg)) is “significantly reduced”. Moreover, the “uptake in PC-3 tumor” value in data set [4] (4 h pi) is recorded as 28.6±6.0 % ID/g; in data set [4] (24 h pi) it was 25.9±6.6 % ID/g. Moreover, the “percentage of parent peptide remaining intact” value in data set [1] is listed as > 91%.
